Assay results reported in patent publication US9963488B2, “Variants of the lantibiotic MU1140 and other lantibiotics with improved pharmacological properties and structural features” (priority 2012, dated 2018).

What was measured:
[1] = test system: Clostridium difficile UK1; test: Minimum inhibitory concentration; type: cell-based; conditions: THyex medium; anaerobic chamber at 37° C.; peptide about 90% purity
Procedure: (§1) Wild-type mutacin 1140, mutacin 1140 with a F1I mutation, mutacin 1140 with a W4A mutation, and mutacin 1140 with a R13D mutation was purified to about 90% purity (measured via HPLC). The minimum inhibitory concentration (MIC) of MU1140 and variants of MU1140 was determined against several bacteria. The MIC is the lowest concentration of MU1140 that will inhibit the visible growth of a microorganism after 24 hour incubation. A lower MIC is an indication of greater inhibitory activity. Preparation of the antimicrobial agent and bacterial inoculum for minimum inhibitory concentrations (MICs) was performed by following the method described in Clinical Laboratory Standard Institute (CLSI) M07-8A with some minor modifications. Streptococcus mutans UA159 was tested overnight in a shaking incubator to maintain uniform dispersion of the bacteria. Clostridium difficile UK1 was tested in an anaerobic chamber at 37° C. The medium used was THyex.

[2] = test system: Micrococcus luteus ATCC10240; test: Minimum inhibitory concentration; type: cell-based; conditions: THyex medium; 24 hour incubation; peptide about 90% purity
Procedure: as §1

[3] = test system: Staphylococcus aureus FA1; test: Minimum inhibitory concentration; type: cell-based; conditions: THyex medium; 24 hour incubation; peptide about 90% purity
Procedure: as §1

[4] = test system: Streptococcus mutans UA159; test: Minimum inhibitory concentration; type: cell-based; conditions: THyex medium; overnight in shaking incubator; peptide about 90% purity
Procedure: as §1

[5] = test system: Streptococcus pneumonia FA1; test: Minimum inhibitory concentration; type: cell-based; conditions: THyex medium; 24 hour incubation; peptide about 90% purity
Procedure: as §1

[6] = test system: all Gram positive bacteria against which it was tested; conditions: cited from earlier work
S. pneumonia = conditions: cited from earlier work
[7] = test system: multi-drug resistant strains of S. aureus; conditions: cited from earlier work
[8] = test system: vancomycin-resistant Enterococcus faecium (VREF); conditions: cited from earlier work
[9] = test system: Gram-negative bacteria or yeast; conditions: cited from earlier work
[10] = cited from earlier work
[11] = murine models, cited from earlier work
Staphylococcus aureus = conditions: pilot study; 60 times the LD50 of Staphylococcus aureus administered; cited from earlier work
[12] = test system: S. aureus or Streptococcus pneumoniae; conditions: repeated subculture in medium with sub-lethal concentrations; cited from earlier work

Mu1140 Wild-type: wild-type lantibiotic MU1140 (SEQ ID NO:17) produced by Streptococcus mutans strain JH1140 (FKAWXLAXPGAARXGAFNAYA; not fully specified; lantibiotic post-translational modifications; DISULFID (3)..(7); (5)..(5) X is Dha amino acid; DISULFID (8)..(11); MOD_RES (8)..(8) Abu; (14)..(14) X is Dhb amino acid; DISULFID (16)..(21); (19)..(21) lanthionine bridge)
MIC Clostridium difficile UK1 [1]: 16
MIC Micrococcus luteus ATCC10240 [2]: 0.0625
MIC Staphylococcus aureus FA1 [3]: 16
MIC Streptococcus mutans UA159 [4]: 2
MIC Streptococcus pneumonia FA1 [5]: 0.5
minimum inhibitory concentration (MIC) [6]: submicromolar
mode of antibacterial action (S. pneumonia): bactericidal
mode of antibacterial action [7]: bactericidal
mode of antibacterial action [8]: bacteriostatic
activity [9]: no activity
cytotoxicity in vitro [10]: low cytotoxicity
toxicity ([11]; intravenous route): low toxicity
distribution [11]: distributed into all body compartments
efficacy (Staphylococcus aureus): efficacy was achieved
development of significant resistance [12]: not observed
